Values of other authors as cited in patent US20110256530A1, “PRODUCTS AND METHODS FOR TISSUE PRESERVATION” (GenVault Corporation, priority 2010, published 2011).

What was measured:
[1] = charge state, pH 7, literature references (30)-(33)
nucleases = conditions: Table I, description in words
[2] = 25° C.

For `Cn1cncc1C[C@H](NC(=O)CCN)C(=O)O` [Anserine, Anserine (Alanine-methyl-histidine)], the “Useful Chemical Properties” value [1] is listed as “Cation at pH 7 (32)”.

For `O=C(O)CN(CCN(CC(=O)O)CC(=O)O)CC(=O)O` [EDTA], the Activity (nucleases) is given as “Divalent Chelator, Inhibitor”.

For `N[C@@H](Cc1c[nH]cn1)C(=O)O` [Histidine], the “Useful Chemical Properties” value [1] is listed as “Neutral zwitterions”.

For `OC[C@@H](O)[C@@H](O)[C@H](O)[C@H](O)CO` [Mannitol], the “Useful Chemical Properties” value [1] is listed as “Neutral (31)”.

In the case of `C=O` [formalin, methylene glycol], the “permeation through tissue block” value [2] is listed as “about 1 mm of tissue block per hour”.

For “Aurinetricarboxylic Acid [Aurinetricarboxylic Acid (ATA)n]”, the Activity (nucleases) is given as “derivative, broad spectrum”.

For “Uridine-Vanadate [Uridine-Vanadate U-V04]”, the Activity (nucleases) is listed as “RNase specific Inhibitor”.

B1: RI: Large (~450 residues, ~49 kDa), acidic leucine-rich repeat protein that binds ribonucleases (protein, UniProt P13489 2-461, looked up)
Ribonuclease inhibitor: SLDIQSLDIQCEELSDARWAELLPLLQQCQVVRLDDCGLTEARCKDISSALRVNPALAELNLRSNELGDVGVHCVLQGLQTPSCKIQKLSLQNCCLTGAGCGVLSSTLRTLPTLQELHLSDNLLGDAGLQLLCEGLLDPQCRLEKLQLEYCSLSAASCEPLASVLRAKPDFKELTVSNNDINEAGVRVLCQGLKDSPCQLEALKLESCGVTSDNCRDLCGIVASKASLRELALGSNKLGDVGMAELCPGLLHPSSRLRTLWIWECGITAKGCGDLCRVLRAKESLKELSLAGNELGDEGARLLCETLLEPGCQLESLWVKSCSFTAACCSHFSSVLAQNRFLLELQISNNRLEDAGVRELCQGLGQPGSVLRVLWLADCDVSDSSCSSLAATLLANHSLRELDLSNNCLGDAGILQLVESVRQPGCLLEQLVLYDIYWSEEMEDRLQALEKDKPSLRVIS
For B1, the “complexes with certain ribonucleases” value (ribonucleases) is listed as “extremely tight complexes”.
